A short description of data set [1]: Evaluation of osmotic pressure of draw solutions (Osmomat 010, freezing point lowering method). The format is physicochemical.
Protocol: Osmotic pressure of each draw solution is measured by using osmotic pressure measurement equipment (Osmomat 010) in accordance with the freezing point lowering method.
The nature of data set [2]: Osmotic flow analysis: water flux and reverse solute flux in U-shaped semi-dynamic forward osmosis apparatus. As to conditions: feed distilled water.
Protocol: The osmotic flow is evaluated with a homemade, U-shaped semi-dynamic forward osmosis apparatus. To test performance of the draw solute, a semi-permeable commercialized FO membrane (cellulose trifluoroacetate) (Hydration Technology Innovation (HTI), USA) is placed in the middle of the apparatus. Each side is filled with distilled water as a feed solution and a draw solution with predetermined or given concentrations, respectively. The selective layer is faced toward the feed solutions and osmotic water flux from feed to draw solutions is calculated from the volumetric change of each solution during one hour after 30 min. The reversed solute flux from draw to feed solution through the membrane is measured by conductivity, inductively coupled plasma optical emission spectroscopy (ICP-OES), and total organic carbon (TOC).
The mark [3] stands for this setting: draw solution osmotic pressure 15.0.
Setting [4] is: draw solution osmotic pressure 29.0.
The mark [5] stands for this setting: draw solution osmotic pressure 43.0.
Where [6] appears, read: draw solution osmotic pressure 8.3.
[7] abbreviates: draw solution osmotic pressure 23.5.
The mark [8] stands for this setting: draw solution osmotic pressure 57.6.

Structures are written as SMILES.

Regarding `[Cl-].[Cl-].[Mg+2]` [Comp. Example 1, MgCl2], the Osmotic pressure was found to be 11.9 atm in data set [1] (draw solution concentration 19.0 mg/ml), 25.2 atm in data set [1] (draw solution concentration 38.1 mg/ml) and 60.6 atm in data set [1] (draw solution concentration 76.2 mg/ml). The Reverse solute flux in data set [2] (setting [3]) was 3.3 GMH; in data set [2] (setting [4]), 4.8 GMH; in data set [2] (setting [5]), 5.6 GMH. Besides, the Water flux in data set [2] (setting [3]) is reported as 5.6 LMH; in data set [2] (setting [4]), 8.2 LMH; in data set [2] (setting [5]), 9.7 LMH.
In the case of `O=S(=O)([O-])[O-].[Mg+2]` [Comp. Example 2, MgSO4], the results for the Osmotic pressure in data set [1] (draw solution concentration 60.2 mg/ml), in data set [1] (draw solution concentration 120.4 mg/ml) and in data set [1] (draw solution concentration 240.7 mg/ml) were 11.7 atm, 25.8 atm and 62.4 atm, respectively. Also, the Reverse solute flux in data set [2] (setting [3]) came to 0.9 GMH; in data set [2] (setting [4]) it was 1.2 GMH. The Water flux in data set [2] (setting [3]) came out at 4.2 LMH; in data set [2] (setting [4]), 5.5 LMH.
As to `NCCN.O=C(O)CC(O)(CC(=O)O)C(=O)[O-].O=C([O-])CC(O)(CC(=O)[O-])C(=O)[O-].[Na+].[Na+].[Na+].[Na+]` [Example 1], the Osmotic pressure in data set [1] (draw solution concentration 29.6 mg/ml) is recorded as 5.8 atm; in data set [1] (draw solution concentration 118.4 mg/ml), 21.8 atm; in data set [1] (draw solution concentration 177.6 mg/ml), 33.8 atm; in data set [1] (draw solution concentration 236.8 mg/ml), 50.4 atm; in data set [1] (draw solution concentration 266.4 mg/ml) it was 61.1 atm. The Reverse solute flux is 0 GMH in data set [2] (setting [6]), 0.02 GMH in data set [2] (setting [7]) and 0.41 GMH in data set [2] (setting [8]). Further, the Water flux is 4.06 LMH in data set [2] (setting [6]), 8.25 LMH in data set [2] (setting [7]) and 11.58 LMH in data set [2] (setting [8]).
On to `NCCNCCNCCNCCN.O=C(O)CC(O)(CC(=O)O)C(=O)[O-].O=C(O)CC(O)(CC(=O)O)C(=O)[O-].O=C([O-])CC(O)(CC(=O)O)C(=O)[O-].O=C([O-])CC(O)(CC(=O)[O-])C(=O)[O-].O=C([O-])CC(O)(CC(=O)[O-])C(=O)[O-].[Na+].[Na+].[Na+].[Na+].[Na+].[Na+].[Na+].[Na+].[Na+].[Na+]` [Example 2], for which the Osmotic pressure was 6.3 atm in data set [1] (draw solution concentration 34.2 mg/ml); 11.8 atm in data set [1] (draw solution concentration 68.5 mg/ml); 17.5 atm in data set [1] (draw solution concentration 102.7 mg/ml); 37.5 atm in data set [1] (draw solution concentration 205.43 mg/ml); 67.1 atm in data set [1] (draw solution concentration 301.2 mg/ml).
In the case of `NCCCCCCNCCCCCCN.O=C(O)CC(O)(CC(=O)O)C(=O)[O-].O=C([O-])CC(O)(CC(=O)O)C(=O)[O-].O=C([O-])CC(O)(CC(=O)[O-])C(=O)[O-].[Na+].[Na+].[Na+].[Na+].[Na+].[Na+]` [Example 4], the Osmotic pressure in data set [1] (draw solution concentration 46.2 mg/ml) was determined as 8.6 atm; in data set [1] (draw solution concentration 92.3 mg/ml), 17.2 atm; in data set [1] (draw solution concentration 184.6 mg/ml), 38.2 atm; in data set [1] (draw solution concentration 249.2 mg/ml) it was 59.3 atm.
As for `NCCNCCN.O=S(=O)(O)O.O=S(=O)([O-])O.O=S(=O)([O-])[O-].[Na+].[Na+].[Na+]` [Example 7], the Osmotic pressure in data set [1] (draw solution concentration 46.3 mg/ml) came to 10.2 atm; in data set [1] (draw solution concentration 92.6 mg/ml) it was 18.2 atm; in data set [1] (draw solution concentration 185.2 mg/ml) it was 20.4 atm; in data set [1] (draw solution concentration 277.8 mg/ml), 26.8 atm; in data set [1] (draw solution concentration 370.4 mg/ml) it was 37.6 atm; in data set [1] (draw solution concentration 463.0 mg/ml) it was 62.8 atm.

The values above are taken from patent US20150165380A1, “DRAW SOLUTES COMPRISING ALKYL AMMONIUM SALT COMPOUNDS” (Samsung Electronics Co., Ltd., priority 2013, published 2015).
